Where a name gives a salt, the structure may show the parent alone.
The compounds below were run on Plasmodium falciparum (assay: GSK_TCMDC: Inhibition of Plasmodium falciparum 3D7 in whole erythrocytes, using parasite LDH activity as an index of growth.). Conditions: Plasmodium falciparum, 3D7.
Type: functional, organism-based
For `CCOC(=O)N/N=C/[C@H](CCc1ccccc1)NC(=O)[C@H](CC(C)C)NC(=O)c1cc2cccc(OC)c2o1`, the XC50 was 880 nM.
In the case of `CC(C)Nc1cc(C(=O)N[C@@H](Cc2ccccc2)[C@H](O)CNCc2cccc(C(F)(F)F)c2)c(F)c(N2CCCCS2(=O)=O)c1`, the XC50 is reported as 794 nM.
With `CCc1sc(N2CCN(C)CC2)nc1C(=O)Nc1ccc(F)cc1C(F)(F)F` the XC50 was 178 nM.
`COc1cc(OC)c(OC)cc1C=NN=c1cc(C)[nH]c2ccccc12` showed an XC50 of 299 nM.
`NC1CCN(c2nc(NCCc3ccc(O)cc3)nc(NCc3ccccc3-c3ccccc3)n2)CC1` gave an XC50 of 822 nM.
For `O=C(/C=C/c1ccc(Cl)c(Cl)c1)N1CCC(CN2CCC(c3c(Br)[nH]c4ccccc34)CC2)CC1`, the XC50 was 289 nM.
`CN(Cc1c(Cl)cnn1C)S(=O)(=O)c1ccc2ccccc2c1` showed an XC50 of 1040 nM.
`CCCc1cc(Cc2cnc(N)nc2N)cc(OCCCCCC(=O)O)c1OC` showed an XC50 of 164 nM.
`COc1c(C)cc(I)cc1CNCCCNc1cc(=O)c2ccccc2[nH]1` showed an XC50 of 1280 nM.
For `CCOC(=O)C1CCN(CCOc2cc(NC(=O)/C=C/c3ccccc3Cl)ccc2Br)CC1`, the XC50 was 991 nM.
Compound `O=C(/C=C/c1ccc(Cl)c(Cl)c1)NCCCCCN1CCC(c2c[nH]c3cc(O)ccc23)CC1` has an XC50 of 745 nM.
In the case of `COc1ccc(CC2(c3ccc(F)cc3)N=C(N)N(CCCc3ccc4c(c3)OCO4)C2=O)cc1` (centres undefined), the XC50 is reported as 739 nM.
`COc1cc(Nc2nccc(N3CCC(NS(=O)(=O)c4ccc(NC(C)=O)cc4)CC3)n2)cc(OC)c1OC` was tested, and the XC50 was 965 nM.
With `Oc1cc2c(cc1CN1CCN(Cc3ccccc3F)CC1)CCC2` the XC50 was 761 nM.
Work on `O=C(Nc1cccc(C(F)(F)F)c1)c1ccc(S(=O)(=O)NCC2CCN(CC3CCCCC3)CC2)cc1` yielded an XC50 of 320 nM.
Compound `Cc1nc(C)c(CC(=O)Nc2ccc(-c3cccc(-c4nc5cccc(C)c5[nH]4)c3)cc2)s1` has an XC50 of 596 nM.
Compound `Cc1cccc2nc(-c3ccc(-c4cccc(NC(=O)NCc5ccc(F)cc5)c4)cc3)[nH]c12` has an XC50 of 146 nM.
`Cc1c(C(=O)C2CC2CN2CCC(N3CCCCC3)CC2)sc2ccccc12` (centres undefined) gave an XC50 of 1020 nM.
In the case of `O=C(O)C1Cc2c([nH]c3ccccc23)C(c2ccc(Cl)cc2Cl)N1` (centres undefined), the XC50 is reported as 954 nM.
Work on `CNC(=O)/C=C/c1cc(NC(=O)Nc2cc(C)nc3c(F)cccc23)ccc1OC` yielded an XC50 of 908 nM.
Compound `O=C(Nc1ccc2c(c1)CCC2)c1ccc(CN2CCCN(Cc3cccc(O)c3)CC2)cc1` has an XC50 of 894 nM.
Work on `CC(C)(C)c1ccccc1OC(=O)c1ccccc1` yielded an XC50 of 740 nM.
With `O=C(NCCCNc1nc2ccccc2[nH]1)c1cccc(OC(F)(F)F)c1` the XC50 was 566 nM.
`CC[C@H](C)CNC(=O)c1cccc(-c2cccc(CNCC3CNCCCO3)c2)n1` (some centres undefined) showed an XC50 of 1080 nM.
With `CC1(C)N=C(N)N=C(N)N1c1ccc(Br)cc1` the XC50 was 9.2 nM.
Compound `CS(=O)(=O)CCNCc1cccc(-c2ccc3c(Nc4ccc(Oc5ccccc5)cc4)ccnc3c2)c1` has an XC50 of 691 nM.
For `CCOc1cccc(C2c3c(oc4ccccc4c3=O)C(=O)N2CCN(CC)CC)c1` (centres undefined), the XC50 was 746 nM.
`CC(C)N(Cc1cnc(N)c(C#N)n1)c1ccc(Cl)c(Cl)c1` was tested, and the XC50 was 844 nM.
`FC(F)(F)COc1ccc2ccccc2c1CNCCCCCCNCc1c(OCC(F)(F)F)ccc2ccccc12` gave an XC50 of 352 nM.
For `O=C(c1cccs1)N1N=C(c2cccs2)CC1c1cccc([N+](=O)[O-])c1` (centres undefined), the XC50 was 820 nM.
`COc1ccc(-c2nc(NC(=O)CSc3ccc([N+](=O)[O-])cc3)sc2C)cc1` showed an XC50 of 136 nM.
With `COc1cc2nc(NCCc3ccccc3)nc(NCc3cnn(C)c3C)c2cc1OC` the XC50 was 711 nM.
Compound `Cc1cccc2nc(-c3ccc(-c4cccc(CNCCCN5CCCC5=O)c4)cc3)[nH]c12` has an XC50 of 840 nM.
In the case of `COc1ccc(CCCc2nc(N)nc(N)c2-c2ccc(Cl)cc2)cc1`, the XC50 is reported as 44.2 nM.
For `COc1ccc(C2CC(=O)C3=C(C2)NC(C)=C(C(=O)OC2CCCC2)C3c2cccc(O)c2)cc1` (centres undefined), the XC50 was 1010 nM.
`Cc1cccc2nc(-c3ccc(-c4cccc(NC(=O)c5cnn6cccnc56)c4)cc3)[nH]c12` was tested, and the XC50 was 872 nM.
`CC(C)Sc1nncc(-c2cnnc(SC(C)C)n2)n1` was tested, and the XC50 was 141 nM.
Work on `Cn1ccnc1CNC(=O)c1ccc(-c2cccc(-c3nc4cc(F)ccc4[nH]3)c2)cc1` yielded an XC50 of 980 nM.
In the case of `O=c1cc(NCCCN(Cc2cc3c(Cl)cc(Cl)cc3[nH]2)Cc2cc3c(Cl)cc(Cl)cc3[nH]2)[nH]c2ccccc12`, the XC50 is reported as 121 nM.
For `Cc1nc(C)c(-c2ccc(S(=O)(=O)c3ccc(Cl)cc3)cc2)c(O)c1Br`, the XC50 was 38 nM.
With `N#Cc1cccc(-c2nc(NCc3cccc(C(F)(F)F)c3)nn2-c2cccc(C(F)(F)F)c2)c1` the XC50 was 592 nM.
Work on `O=C(/C=C/c1ccc(Br)cc1)NCCCCCN1CCC(c2c[nH]c3ccccc23)CC1` yielded an XC50 of 724 nM.
`O=C(Cc1cccs1)NCC(c1ccccc1Cl)c1c[nH]c2ccccc12` (centres undefined) was tested, and the XC50 was 1150 nM.
With `CCCc1cc(=O)[nH]c(-n2nc(C)cc2NC(=O)c2cc3ccccc3o2)n1` the XC50 was 1110 nM.
`O=C1COc2ccccc2N1CCN1CCC(NCc2ccc(-c3cccs3)cc2)CC1` was tested, and the XC50 was 1430 nM.
`COc1ccc(-c2nc(NC(=O)Cc3ccc(OC)c(OC)c3)sc2C)cc1` was tested, and the XC50 was 1160 nM.
Work on `CC(C)(C)c1ccc(CN(C[C@@H](O)CNS(=O)(=O)c2cc(Cl)cc(Cl)c2)C(C)(C)C)cc1` yielded an XC50 of 935 nM.
With `COc1ccc(CN2CCC(CNCc3cccc(-c4ccccc4)c3)CC2)cc1` the XC50 was 236 nM.
In the case of `CC(NC(=O)c1ccc(O)c(-c2ccc(Cl)c(Cl)c2)c1)C(=O)NCCN1CCCC1` (centres undefined), the XC50 is reported as 759 nM.
Compound `Fc1ccc2[nH]c(-c3ccc(-c4ccc(CN5CCCCC5)cc4)cc3)nc2c1` has an XC50 of 349 nM.
`COc1ccc(C2C(C(=O)Nc3ccc4c(c3)OCO4)c3cc(OC)c(OC)cc3C(=O)N2C)cc1` (centres undefined) was tested, and the XC50 was 1040 nM.
In the case of `O=C(NC1CC1)c1ccc(N2CCC(Cc3ccccc3)CC2)c([N+](=O)[O-])c1`, the XC50 is reported as 614 nM.
In the case of `CN(C)c1ccc(-c2nc3cc(N)ccc3[nH]2)cc1`, the XC50 is reported as 239 nM.
In the case of `COC(=O)c1ccc2c(-c3nc4ccc(OC)cc4[nH]3)c[nH]c2c1`, the XC50 is reported as 876 nM.
`NC(=O)c1cccc(C(=O)Nc2cccc(-c3ccc(-c4nc5ccccc5[nH]4)s3)c2)c1` showed an XC50 of 349 nM.
For `CCCOc1ccccc1-c1nc2[nH]c3c(c2c(=O)[nH]1)CCN(C)C3`, the XC50 was 367 nM.
`Nc1nc(N)c2cc(Cc3ccccc3Cl)cnc2n1` was tested, and the XC50 was 106 nM.
Compound `O=C(NCCCCN1CCC(c2ccc3c(c2OCCO)CCCC3)CC1)c1ccc(-c2ccc(C(F)(F)F)cc2)cc1` has an XC50 of 855 nM.
`O=C(Nc1ccc(Cl)cc1)Nc1cccc(-c2ccc(-c3nc4cc(F)ccc4[nH]3)cc2)c1` showed an XC50 of 47.5 nM.
Compound `Oc1cccc2ccc(Nc3ccccn3)nc12` has an XC50 of 752 nM.
For `Cc1cc(NCCC(=O)Nc2ccccc2)nc(NCCc2cccnc2)n1`, the XC50 was 1240 nM.
`CC1CN(Cc2ccccc2)CCN1c1ccc(NC(=O)c2cccs2)cc1` (centres undefined) was tested, and the XC50 was 276 nM.
`CCN(CC)CCN(Cc1ccc(-c2ccc(C(F)(F)F)cc2)cc1)C(=O)Cn1c(CCc2cc(F)cc(F)c2F)nc(=O)c2ccccc21` showed an XC50 of 756 nM.
In the case of `O=C(Nc1ccc(Cl)cc1)c1ccc(S(=O)(=O)NCC2CCN(CC3CCCCC3)CC2)cc1`, the XC50 is reported as 857 nM.
In the case of `COc1ccc2nccc([C@@H](O)CN3CCC(NCc4nc5c(cc4Cl)OCC(=O)N5)C(F)C3)c2c1` (some centres undefined), the XC50 is reported as 1320 nM.
With `CC(=O)Nc1ccc(C(=O)Nc2cccc(-c3ccc(-c4nc5cc(C(F)(F)F)ccc5[nH]4)cc3)c2)cn1` the XC50 was 231 nM.
Work on `CCc1cn2c3c(cc(C(=O)N[C@@H](Cc4ccccc4)[C@H](O)CNC4CCOCC4)cc13)N(CC(F)(F)F)S(=O)(=O)CC2` yielded an XC50 of 29.6 nM.
`c1cc(-c2nc3ccccc3[nH]2)nc(-c2nc3ccccc3[nH]2)c1` was tested, and the XC50 was 1120 nM.
`Cc1ccc2nc(C)n(C3CCN(C(=O)Cc4ccc(F)c(F)c4)CC3)c2c1` showed an XC50 of 474 nM.
`COc1cc(NC(=O)N2CCOC(CCN3CCC4(CCc5ccccc54)CC3)(c3ccc(Cl)c(Cl)c3)C2)cc(OC)c1OC` (centres undefined) was tested, and the XC50 was 156 nM.
`CC(C)(C)OC(=O)N1CCN(c2ccccc2NC(=O)c2cccc(C(F)(F)F)c2Oc2ccc(F)cc2)CC1` was tested, and the XC50 was 857 nM.
With `CN1CCN(c2ccc(Nc3nccc(-c4c(-c5cccc(NC(=O)c6c(F)cccc6F)c5)nn5ccccc45)n3)cc2)CC1` the XC50 was 112 nM.
In the case of `CCCCSc1ccc(CNCCCCCCNCc2ccc(SCCCC)c3ccccc23)c2ccccc12`, the XC50 is reported as 631 nM.
`N#Cc1cc(C(=O)c2cc(Cl)ccc2O)cn(-c2cc(Cl)cc(Cl)c2)c1=O` gave an XC50 of 849 nM.
Work on `CN(C)c1ccc(C=Cc2ccc3ccccc3n2)c(Cl)c1` yielded an XC50 of 436 nM.
Work on `Cc1cccc2nc(-c3cccc(-c4cccc(CNCCN5CCNCC5)c4)c3)[nH]c12` yielded an XC50 of 970 nM.
`Cc1ccc(Nc2nc(C)cc(Nc3cccc(NS(C)(=O)=O)c3)n2)cc1` showed an XC50 of 917 nM.
`CCOC(=O)CCCCCNC[C@H](O)c1ccccc1` was tested, and the XC50 was 328 nM.
With `O=C(Cn1c(SCc2cccc(F)c2F)cc(=O)c2ccccc21)N(CCCn1ccnc1)Cc1ccc(-c2ccc(C(F)(F)F)cc2)cc1` the XC50 was 1320 nM.
For `COc1ccc(-c2cncc3ccc(C(=O)NCCCn4ccnc4)nc23)cc1`, the XC50 was 748 nM.
For `CC(C)C(=O)NC(c1ccc(Cl)cc1)c1ccc2cccnc2c1O` (centres undefined), the XC50 was 873 nM.
`COC(=O)Cn1c2ccccc2c2c(N)c(C(=O)OC)c(C)nc21` gave an XC50 of 938 nM.
In the case of `CC(=O)Nc1ccc(CNC2Cc3ccc(-c4ccc(Cl)c(Cl)c4)cc3C2)cc1` (centres undefined), the XC50 is reported as 998 nM.
`CC1(C)NC(N)=NC(=N)N1OCCCOc1ccc(N)cc1` was tested, and the XC50 was 7.04 nM.
For `N=C(N)c1ccc(OCCCCCOc2ccc(C(=N)N)cc2)cc1` [PENTAMIDINE HYDROCHLORIDE], the XC50 was 140 nM.
`CN1CCN=C1c1ccc(NC(=O)Nc2ccc(C3=NCCN3C)cc2)cc1` gave an XC50 of 379 nM.
`CNCCNCc1cccc(-c2cccc(-c3nc4cccc(C)c4[nH]3)c2)c1` gave an XC50 of 766 nM.
Compound `Cc1nc(-c2ccccc2)nc(N2CCN(C(=O)c3ccco3)CC2)c1Cc1ccccc1F` has an XC50 of 927 nM.
Compound `CCN(CC)CCN(Cc1ccc(-c2ccc(C(F)(F)F)s2)cc1)C(=O)Cn1c(CCc2cccc(F)c2F)nc(=O)c2ccccc21` has an XC50 of 994 nM.
`O=C(/C=C/c1ccc(Cl)c(Cl)c1)N1CCN(C(=O)Nc2cccc(C(F)(F)F)c2)CC1` showed an XC50 of 704 nM.
`Cc1ncc(CN2CCC(C(=O)Nc3ccc(-c4nc5ccccc5o4)cc3)CC2)s1` showed an XC50 of 393 nM.
`COc1ccc(-c2ccc(NC(=O)c3ccc(C#N)cc3)cc2)cc1CN(C)CCO` showed an XC50 of 629 nM.
For `Cc1nc(N2CCC(C)CC2)c2c3c(sc2n1)CCCC3`, the XC50 was 1060 nM.
`Cc1cccc2nc(-c3ccc(-c4ccc(CN5CCN(C6CCN(C)CC6)CC5)cc4)s3)[nH]c12` gave an XC50 of 145 nM.
`Cc1ccc(NC(=O)c2ccc(CN3CCCN(CC4CCCCC4)CC3)cc2)cc1` showed an XC50 of 797 nM.
In the case of `COc1ccc(C=CC(=O)Nc2ccc(N3CCCC3)cc2)cc1`, the XC50 is reported as 1280 nM.
With `CC1(C)N=C(N)N=C(N)N1OCc1ccc2c(c1)OCO2` the XC50 was 3.68 nM.
For `OC(CNc1ccnc(Nc2cccc(Cl)c2)n1)c1ccccc1C(F)(F)F` (centres undefined), the XC50 was 902 nM.
Work on `Cc1cccc(CNc2nccc3[nH]c4ccccc4c23)c1` yielded an XC50 of 1900 nM.
